Activity calls are given as the source filed them.
Experiments:
[1] = biological target: Hepatocyte nuclear factor 4-alpha (Homo sapiens, UniProt P41235); format: functional, cell-based;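 further: biochemical luminescence-based dose-response counterscreen measuring inhibition of HNF4 dimerization, run alongside a screen for blockers of ABHD5–perilipin-5 interaction; split luciferase complementation of HNF4 fusion proteins in cell lysate measuring dimerization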
Interleukin-8 [2] = biological target: T1, Interleukin-8 (Homo sapiens, UniProt P10145); assay: Dose Response confirmation of uHTS small molecule hits for cystic fibrosis induced NFkb Inhibitors in a TNFa-induced IL8 counterscreen.; format: functional; details: read-out: IC50_Mean
T1 sequence (P10145 whole entry): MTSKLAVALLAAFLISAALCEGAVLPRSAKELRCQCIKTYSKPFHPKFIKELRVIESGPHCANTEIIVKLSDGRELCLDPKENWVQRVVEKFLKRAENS

Interleukin-8 [3] = biological target: T1, Interleukin-8; assay: Dose Response confirmation of uHTS small molecule hits for cystic fibrosis induced NFkb Inhibitors in a PAF-induced IL8 counterscreen.; format: functional; details: read-out: IC50_Mean
[4] = biological target: T2, ATP-dependent translocase ABCB1 (Homo sapiens, UniProt P08183); assay: inhibition of BCRP-mediated JC-1 efflux – Ig-MXP3 cells, flow cytometry, set 2, dose response (AID 504566); format: functional; details: read-out: EC50_MICROM_;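 further: flow cytometry median green fluorescence of retained JC-1 dye; potency of efflux pump inhibition measured as rising substrate retention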
T2 sequence (P08183 whole entry): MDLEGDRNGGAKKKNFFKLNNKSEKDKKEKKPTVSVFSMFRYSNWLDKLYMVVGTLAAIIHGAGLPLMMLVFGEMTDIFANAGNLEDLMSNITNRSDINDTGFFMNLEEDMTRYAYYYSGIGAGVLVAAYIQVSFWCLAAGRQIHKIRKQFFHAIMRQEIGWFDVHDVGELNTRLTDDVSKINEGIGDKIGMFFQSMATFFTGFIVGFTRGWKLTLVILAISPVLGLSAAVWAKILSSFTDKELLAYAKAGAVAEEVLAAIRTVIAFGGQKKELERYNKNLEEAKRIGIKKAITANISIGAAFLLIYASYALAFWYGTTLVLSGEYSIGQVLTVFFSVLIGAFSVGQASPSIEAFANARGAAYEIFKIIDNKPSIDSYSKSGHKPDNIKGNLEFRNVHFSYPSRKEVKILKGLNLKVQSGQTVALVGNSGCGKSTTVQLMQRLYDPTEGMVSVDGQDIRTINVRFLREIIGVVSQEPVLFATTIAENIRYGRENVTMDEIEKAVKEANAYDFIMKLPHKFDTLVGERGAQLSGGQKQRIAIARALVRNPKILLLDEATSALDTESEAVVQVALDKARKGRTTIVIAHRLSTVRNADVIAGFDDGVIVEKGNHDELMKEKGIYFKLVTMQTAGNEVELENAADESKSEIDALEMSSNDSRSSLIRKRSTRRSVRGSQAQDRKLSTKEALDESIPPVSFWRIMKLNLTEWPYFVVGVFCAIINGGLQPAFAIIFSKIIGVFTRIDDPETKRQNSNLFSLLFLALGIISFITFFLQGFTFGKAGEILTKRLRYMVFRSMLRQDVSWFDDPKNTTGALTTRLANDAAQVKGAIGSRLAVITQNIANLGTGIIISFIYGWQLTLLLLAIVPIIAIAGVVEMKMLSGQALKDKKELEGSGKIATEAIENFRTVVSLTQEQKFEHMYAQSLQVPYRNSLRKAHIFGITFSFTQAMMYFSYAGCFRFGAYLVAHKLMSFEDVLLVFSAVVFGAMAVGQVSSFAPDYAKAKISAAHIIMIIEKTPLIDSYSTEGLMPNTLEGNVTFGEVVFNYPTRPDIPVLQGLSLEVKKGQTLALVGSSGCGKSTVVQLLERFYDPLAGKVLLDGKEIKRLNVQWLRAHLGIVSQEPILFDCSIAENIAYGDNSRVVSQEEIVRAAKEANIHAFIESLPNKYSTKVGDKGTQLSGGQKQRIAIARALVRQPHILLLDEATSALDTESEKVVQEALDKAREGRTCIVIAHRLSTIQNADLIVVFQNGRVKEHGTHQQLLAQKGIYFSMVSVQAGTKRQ

[5] = biological target: T2, ATP-dependent translocase ABCB1; assay: P-gp JC-1 efflux blockade concentration-response – Jurkat-DNR cells, flow cytometry, set 2, dose response (AID 504569); format: functional; details: read-out: EC50_MICROM_;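 further: potency of pump inhibitors that raise cellular JC-1 green fluorescence up to the nicardipine level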
cells = format: functional, cell-based
[6] = biological target: T3, Nuclear receptor subfamily 0 group B member 1 (Homo sapiens, UniProt P51843); format: functional, cell-based;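 further: HEK293T cells transfected with SF-1 and DAX-1 plus StAR promoter luciferase reporter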
T3 sequence (P51843 whole entry): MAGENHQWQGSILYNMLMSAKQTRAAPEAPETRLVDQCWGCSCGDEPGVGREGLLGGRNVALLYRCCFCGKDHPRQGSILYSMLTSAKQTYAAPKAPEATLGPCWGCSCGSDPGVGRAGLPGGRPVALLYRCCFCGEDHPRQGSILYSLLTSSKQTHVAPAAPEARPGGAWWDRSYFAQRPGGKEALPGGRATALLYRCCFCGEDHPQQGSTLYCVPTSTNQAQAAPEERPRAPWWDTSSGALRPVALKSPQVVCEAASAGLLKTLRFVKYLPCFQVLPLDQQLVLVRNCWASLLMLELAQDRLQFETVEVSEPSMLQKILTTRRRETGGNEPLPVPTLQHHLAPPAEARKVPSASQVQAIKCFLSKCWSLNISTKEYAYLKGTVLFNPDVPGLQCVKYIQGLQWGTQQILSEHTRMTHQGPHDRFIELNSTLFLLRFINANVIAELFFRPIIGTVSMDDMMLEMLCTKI

Vero = assay: viability loss in Vero cells – cell-based, plate reader, cherry-pick samples, cytotoxicity control, dose response (AID 687020); format: functional; details: Chlorocebus sabaeus
[7] = biological target: T4, Small ubiquitin-related modifier 1 (Homo sapiens, UniProt P63165); assay: SUMO1 protein interaction blockers, potency – biochemical, fluorescence polarization, uHTS hits, dose response (AID 624382); format: functional; details: read-out: IC50_Mean
T4 sequence (P63165 whole entry): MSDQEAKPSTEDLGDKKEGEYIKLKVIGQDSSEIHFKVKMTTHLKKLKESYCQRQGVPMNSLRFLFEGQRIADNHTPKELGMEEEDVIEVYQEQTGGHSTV

Aminopeptidase N = biological target: T5, Aminopeptidase N (Plasmodium falciparum FcB1/Columbia, UniProt O96935); assay: malaria alanyl aminopeptidase activity blockers – biochemical, fluorogenic H-Leu-NHMec substrate, 1536-well (AID 1445); parameters: species or system Plasmodium falciparum 3D7, 3D7
T5 sequence (O96935 whole entry): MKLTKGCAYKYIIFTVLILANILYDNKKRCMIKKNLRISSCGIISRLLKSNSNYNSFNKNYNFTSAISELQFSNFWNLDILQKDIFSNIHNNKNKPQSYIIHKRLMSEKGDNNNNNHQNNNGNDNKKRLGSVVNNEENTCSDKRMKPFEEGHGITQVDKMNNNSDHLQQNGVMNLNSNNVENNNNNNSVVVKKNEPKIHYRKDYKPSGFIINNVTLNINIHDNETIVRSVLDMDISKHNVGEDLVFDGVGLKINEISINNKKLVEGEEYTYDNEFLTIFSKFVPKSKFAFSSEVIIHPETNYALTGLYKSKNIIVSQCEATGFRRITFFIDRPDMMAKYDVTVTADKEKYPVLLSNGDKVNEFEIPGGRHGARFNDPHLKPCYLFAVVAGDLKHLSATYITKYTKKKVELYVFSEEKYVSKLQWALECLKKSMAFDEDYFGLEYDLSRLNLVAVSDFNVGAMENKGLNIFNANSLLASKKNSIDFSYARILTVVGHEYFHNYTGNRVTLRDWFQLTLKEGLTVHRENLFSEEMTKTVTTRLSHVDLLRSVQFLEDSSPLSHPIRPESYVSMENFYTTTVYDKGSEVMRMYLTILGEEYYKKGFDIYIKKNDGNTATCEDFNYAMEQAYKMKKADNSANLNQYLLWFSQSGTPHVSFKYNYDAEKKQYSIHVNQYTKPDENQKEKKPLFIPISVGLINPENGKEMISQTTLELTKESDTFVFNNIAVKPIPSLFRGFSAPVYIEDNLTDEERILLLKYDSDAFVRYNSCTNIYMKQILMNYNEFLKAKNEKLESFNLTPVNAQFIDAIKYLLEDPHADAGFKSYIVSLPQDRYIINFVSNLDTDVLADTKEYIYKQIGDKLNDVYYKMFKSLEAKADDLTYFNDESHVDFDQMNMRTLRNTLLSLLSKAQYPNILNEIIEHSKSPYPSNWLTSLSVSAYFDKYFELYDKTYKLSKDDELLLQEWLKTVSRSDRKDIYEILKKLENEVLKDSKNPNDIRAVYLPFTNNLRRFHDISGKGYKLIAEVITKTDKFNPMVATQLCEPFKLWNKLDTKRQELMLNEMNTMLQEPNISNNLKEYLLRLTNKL

Caspase-7 = Caspase-7 (Homo sapiens, UniProt P55210); assay: caspase-7 enzyme inhibition, selectivity check – biochemical, DEVD-R110 fluorescence, cherry-pick, selectivity assay for caspase-6 inhibitor project, dose response (AID 743295); format: functional
Chain of Caspase-7 (P55210 24-198 limits assumed): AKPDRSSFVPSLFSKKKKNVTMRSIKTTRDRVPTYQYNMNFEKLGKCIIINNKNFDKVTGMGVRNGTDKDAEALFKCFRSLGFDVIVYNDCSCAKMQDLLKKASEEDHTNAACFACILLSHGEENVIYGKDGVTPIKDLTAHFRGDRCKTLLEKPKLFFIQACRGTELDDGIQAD
Chain of Caspase-7 (P55210 207-303 limits assumed): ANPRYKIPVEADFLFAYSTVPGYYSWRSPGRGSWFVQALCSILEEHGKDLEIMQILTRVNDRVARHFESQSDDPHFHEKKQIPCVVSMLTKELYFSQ

Caspase-8 = Caspase-8 (Homo sapiens, UniProt Q14790); assay: inhibitors of purified CASP8 protease – biochemical, Z-IETD-R110 fluorescence, cherry-picked samples, selectivity assay for caspase-6 inhibitor project, dose response (AID 743294)
Chain of Caspase-8 (Q14790 217-374 limits assumed): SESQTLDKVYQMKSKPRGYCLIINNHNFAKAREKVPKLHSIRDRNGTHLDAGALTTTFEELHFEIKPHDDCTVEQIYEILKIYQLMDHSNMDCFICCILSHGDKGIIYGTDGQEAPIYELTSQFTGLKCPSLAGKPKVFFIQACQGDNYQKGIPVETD
Chain of Caspase-8 (Q14790 385-479 limits assumed): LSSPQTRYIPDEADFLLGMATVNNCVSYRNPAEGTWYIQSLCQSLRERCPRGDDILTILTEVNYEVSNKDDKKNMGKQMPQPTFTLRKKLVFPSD

Genome polyprotein = Genome polyprotein (dengue virus type 2, UniProt P29990); assay: flavivirus cap methylation enzyme inhibition – biochemical, confirmation dose response, primary screen (AID 588689); format: functional
Chain of Genome polyprotein (P29990 2492-3391 limits assumed): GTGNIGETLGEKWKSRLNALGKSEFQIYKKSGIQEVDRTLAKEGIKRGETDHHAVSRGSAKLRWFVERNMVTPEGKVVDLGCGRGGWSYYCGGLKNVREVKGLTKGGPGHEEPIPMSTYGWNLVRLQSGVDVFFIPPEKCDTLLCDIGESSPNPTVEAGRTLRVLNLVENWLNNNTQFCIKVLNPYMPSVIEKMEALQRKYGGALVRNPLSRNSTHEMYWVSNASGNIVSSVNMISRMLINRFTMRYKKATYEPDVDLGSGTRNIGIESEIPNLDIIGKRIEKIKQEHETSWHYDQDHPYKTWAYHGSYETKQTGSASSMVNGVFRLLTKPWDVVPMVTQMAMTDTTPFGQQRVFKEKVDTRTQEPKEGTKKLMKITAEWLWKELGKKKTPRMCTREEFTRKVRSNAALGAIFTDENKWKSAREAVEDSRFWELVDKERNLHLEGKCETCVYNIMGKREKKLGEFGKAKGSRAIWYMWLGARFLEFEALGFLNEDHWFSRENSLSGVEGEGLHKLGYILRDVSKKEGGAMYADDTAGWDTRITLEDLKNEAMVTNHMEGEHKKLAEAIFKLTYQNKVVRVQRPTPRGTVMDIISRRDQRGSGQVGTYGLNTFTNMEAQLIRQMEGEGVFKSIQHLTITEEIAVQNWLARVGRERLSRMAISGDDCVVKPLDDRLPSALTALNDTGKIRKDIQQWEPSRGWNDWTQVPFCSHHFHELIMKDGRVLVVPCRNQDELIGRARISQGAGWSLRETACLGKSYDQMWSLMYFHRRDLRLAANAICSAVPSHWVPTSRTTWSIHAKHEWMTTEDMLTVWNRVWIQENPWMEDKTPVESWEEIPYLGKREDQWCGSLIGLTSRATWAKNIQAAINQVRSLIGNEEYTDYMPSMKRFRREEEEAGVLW

Caspase-6 = biological target: T6, Caspase-6 (Homo sapiens, UniProt P55212); assay: inhibition of CASP6 peptide cleavage – biochemical, VEID-R110 fluorescence, cherry-pick, dose response (AID 720632)
T6 sequence (P55212 whole entry): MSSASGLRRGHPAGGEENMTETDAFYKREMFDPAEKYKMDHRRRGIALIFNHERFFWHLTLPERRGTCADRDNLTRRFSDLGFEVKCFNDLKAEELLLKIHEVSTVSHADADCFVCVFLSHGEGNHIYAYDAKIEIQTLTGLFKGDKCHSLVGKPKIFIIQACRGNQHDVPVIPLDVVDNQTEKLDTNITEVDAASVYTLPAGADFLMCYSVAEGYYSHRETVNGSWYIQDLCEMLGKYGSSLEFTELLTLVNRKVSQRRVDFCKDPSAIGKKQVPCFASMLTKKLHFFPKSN

[8] = biological target: T4, Small ubiquitin-related modifier 1; assay: SUMO1 protein-protein binding blockers, potency – biochemical, FRET, dose response (AID 624383); format: functional; details: read-out: IC50_Mean
[9] = luciferase reporter signal suppression in cells – H4 neuroglioma cells, luminescence, dose response (AID 1990); format: functional, cell-based
Beta-lactamase [10] = biological target: Beta-lactamase (Salmonella choleraesuis (strain SC-B67), UniProt Q5J463); assay: Epi-absorbance-based counterscreen for selective VIM-2 inhibitors: dose response biochemical high throughput screening assay to identify inhibitors of TEM-1 serine-beta-lactamase.
Chain of Beta-lactamase (Salmonella choleraesuis (strain SC-B67), UniProt Q5J463) (Q5J463 whole entry): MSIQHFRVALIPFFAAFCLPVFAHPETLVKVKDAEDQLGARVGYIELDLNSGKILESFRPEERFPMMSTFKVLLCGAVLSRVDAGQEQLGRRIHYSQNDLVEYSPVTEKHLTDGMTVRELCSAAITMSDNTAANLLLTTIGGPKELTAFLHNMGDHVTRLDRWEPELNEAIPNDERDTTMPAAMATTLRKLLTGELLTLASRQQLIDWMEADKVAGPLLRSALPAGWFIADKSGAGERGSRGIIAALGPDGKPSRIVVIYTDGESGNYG

Beta-lactamase [11] = biological target: T7, Beta-lactamase (Pseudomonas aeruginosa, UniProt Q79MP6); assay: […] counterscreen for selective VIM-2 inhibitors: dose response biochemical high throughput screening assay to identify inhibitors of IMP-1 metallo-beta-lactamase.
T7 sequence (Q79MP6 whole entry): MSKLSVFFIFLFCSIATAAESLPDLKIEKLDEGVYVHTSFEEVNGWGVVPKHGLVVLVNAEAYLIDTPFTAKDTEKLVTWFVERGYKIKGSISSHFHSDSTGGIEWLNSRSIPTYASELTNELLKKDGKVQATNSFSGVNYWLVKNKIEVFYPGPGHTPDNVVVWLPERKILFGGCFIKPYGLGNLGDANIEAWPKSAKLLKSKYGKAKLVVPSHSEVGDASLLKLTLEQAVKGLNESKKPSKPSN

[12] = Luminescence Cell-Based Dose Response HTS to Identify Inhibitors of 5'UTR Stem-Loop Driven Prion Protein mRNA Translation in H4 Neuroglioblastoma Cells. [Related pubchem assays: 1827 (Project Summary), 1813 (Primary HTS)]; format: functional
[13] = biological target: DNA dC->dU-editing enzyme APOBEC-3A (Homo sapiens, UniProt P31941); assay: A3A deaminase inhibition for selectivity – biochemical, dose response (AID 504722); format: functional
Chain of DNA dC->dU-editing enzyme APOBEC-3A (P31941 whole entry): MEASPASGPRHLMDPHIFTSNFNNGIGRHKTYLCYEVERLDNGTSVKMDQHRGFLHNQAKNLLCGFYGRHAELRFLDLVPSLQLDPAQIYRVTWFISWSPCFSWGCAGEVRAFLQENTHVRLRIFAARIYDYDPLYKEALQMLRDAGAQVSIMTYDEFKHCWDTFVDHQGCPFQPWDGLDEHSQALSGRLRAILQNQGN

[14] = biological target: DNA dC->dU-editing enzyme APOBEC-3G (Homo sapiens, UniProt Q9HC16); assay: Dose Response confirmation of small molecule APOBEC3G DNA Deaminase Inhibitors via a fluorescence-based single-stranded DNA deaminase assay. [Related pubchem assays (depositor defined):AID493012, AID493028]; format: functional
Chain of DNA dC->dU-editing enzyme APOBEC-3G (Q9HC16 whole entry): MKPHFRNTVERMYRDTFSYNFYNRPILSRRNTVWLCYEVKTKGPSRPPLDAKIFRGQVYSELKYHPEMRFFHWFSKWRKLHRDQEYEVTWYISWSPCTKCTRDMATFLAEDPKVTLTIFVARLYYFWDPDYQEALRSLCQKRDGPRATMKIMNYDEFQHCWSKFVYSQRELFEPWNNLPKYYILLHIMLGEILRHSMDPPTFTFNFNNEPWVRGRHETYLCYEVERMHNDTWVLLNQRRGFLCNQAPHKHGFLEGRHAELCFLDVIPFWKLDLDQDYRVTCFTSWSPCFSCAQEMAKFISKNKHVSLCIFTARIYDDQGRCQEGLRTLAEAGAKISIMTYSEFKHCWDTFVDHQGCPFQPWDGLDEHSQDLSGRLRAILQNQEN

[15] = alpha-synuclein stem-loop luciferase translation blockers – H4 neuroglioma cells, luminescence, confirmation (AID 1988); format: functional, cell-based
Beta-lactamase [16] = biological target: T7, Beta-lactamase; assay: inhibition of IMP-1 beta-lactamase activity – biochemical, epi-absorbance, selectivity assay for VIM-2 inhibitor project, dose response (AID 1920)
[17] = biological target: Arf-GAP with SH3 domain, ANK repeat and PH domain-containing protein 1 (Homo sapiens, UniProt Q9ULH1); format: functional;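 further: biochemical fluorescence polarization dose–response screen measuring inhibition of ASAP1; ASAP1 GAP domain stimulating GTP hydrolysis by truncated human ARF1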
Protein Wnt-3a = Protein Wnt-3a (Mus musculus, UniProt P27467); assay: antagonism of Wnt3a pathway luciferase reporter – Wnt-LIGHT cells, luminescence, selectivity assay for Gli-SUFU antagonist project, dose response (AID 651570); format: functional; details: read-out: IC50_Mean;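 further: Wnt-LIGHT reporter cells stimulated with conditioned medium from Wnt3a-producing cells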
Chain of Protein Wnt-3a (P27467 whole entry): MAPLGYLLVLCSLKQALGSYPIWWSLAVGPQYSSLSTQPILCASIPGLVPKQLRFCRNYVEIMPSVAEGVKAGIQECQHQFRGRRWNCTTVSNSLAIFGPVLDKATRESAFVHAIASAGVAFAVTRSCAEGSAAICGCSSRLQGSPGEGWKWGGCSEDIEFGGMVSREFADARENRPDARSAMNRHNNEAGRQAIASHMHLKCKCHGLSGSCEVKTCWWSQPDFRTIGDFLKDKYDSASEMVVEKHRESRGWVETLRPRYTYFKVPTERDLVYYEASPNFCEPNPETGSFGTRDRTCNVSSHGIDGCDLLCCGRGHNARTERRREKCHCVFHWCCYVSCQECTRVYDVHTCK

[18] = biological target: T8, Low molecular weight phosphotyrosine protein phosphatase (Homo sapiens, UniProt P24666); format: functional; details: read-out: IC50_Mean;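 further: Dose-response confirmation assay measuring inhibition of LMPTP enzyme activity by fluorescence intensity read-out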
T8 sequence (P24666 whole entry): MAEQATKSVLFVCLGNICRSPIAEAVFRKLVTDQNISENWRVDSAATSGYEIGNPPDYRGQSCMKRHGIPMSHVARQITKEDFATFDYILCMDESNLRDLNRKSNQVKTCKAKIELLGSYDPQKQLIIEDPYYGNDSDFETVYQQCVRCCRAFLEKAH

[19] = intracellular Trypanosoma cruzi inhibitors in host cells – cell-based, plate reader, cherry-pick samples, set 3, dose response (AID 651818); format: functional;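 further: compounds incubated with infected cells for about four days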
[20] = HEK293 cell viability loss – plate reader, cherry-pick, cytotoxicity control, dose response (AID 651899); format: functional, cell-based
[21] = biological target: T9, Adenosylmethionine-8-amino-7-oxononanoate aminotransferase (Mycobacterium tuberculosis, UniProt P9WQ81); assay: Mycobacterium tuberculosis BioA enzyme inhibitor Measured in Biochemical System Using Plate Reader - 2163-02_Inhibitor_Dose_CherryPick_Activity.; format: functional, Mycobacterium tuberculosis UT205
T9 sequence (P9WQ81 whole entry): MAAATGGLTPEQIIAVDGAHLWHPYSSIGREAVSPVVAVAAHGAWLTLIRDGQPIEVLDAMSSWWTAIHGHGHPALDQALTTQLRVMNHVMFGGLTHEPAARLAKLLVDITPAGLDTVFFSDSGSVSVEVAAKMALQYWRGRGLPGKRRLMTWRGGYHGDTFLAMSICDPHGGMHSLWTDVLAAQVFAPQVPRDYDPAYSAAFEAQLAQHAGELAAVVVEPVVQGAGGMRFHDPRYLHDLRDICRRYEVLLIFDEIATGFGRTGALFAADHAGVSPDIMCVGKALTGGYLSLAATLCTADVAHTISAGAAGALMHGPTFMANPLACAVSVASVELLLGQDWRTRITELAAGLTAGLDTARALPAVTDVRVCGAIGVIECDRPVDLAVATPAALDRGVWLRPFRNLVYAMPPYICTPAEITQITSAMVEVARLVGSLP

Chain of Hepatocyte nuclear factor 4-alpha (P41235 whole entry, the tested form may be a part): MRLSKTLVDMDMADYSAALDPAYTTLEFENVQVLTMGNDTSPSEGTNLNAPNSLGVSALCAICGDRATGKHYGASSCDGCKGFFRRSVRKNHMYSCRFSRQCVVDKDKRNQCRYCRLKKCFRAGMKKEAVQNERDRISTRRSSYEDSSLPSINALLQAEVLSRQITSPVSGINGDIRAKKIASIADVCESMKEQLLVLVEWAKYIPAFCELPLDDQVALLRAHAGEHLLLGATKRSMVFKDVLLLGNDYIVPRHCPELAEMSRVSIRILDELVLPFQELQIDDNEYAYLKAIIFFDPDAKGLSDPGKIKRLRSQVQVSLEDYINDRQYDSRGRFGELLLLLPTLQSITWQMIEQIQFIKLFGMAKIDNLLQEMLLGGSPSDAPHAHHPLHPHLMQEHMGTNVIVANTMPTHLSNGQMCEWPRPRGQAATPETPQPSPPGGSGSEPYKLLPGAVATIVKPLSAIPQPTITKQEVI

SMILES: O=C(NC1CCCCC1)C(c1ccccc1)n1c(=O)c(-c2ccco2)nc2ccccc21 (centres undefined)
- IC50 [1]: 0.817 µM (active)

SMILES: O=C(Nc1ccc(N2CCN(C(=O)c3ccccc3F)CC2)cc1)c1cncc(Br)c1
- IC50 (Interleukin-8 [2]): > 79 µM (inactive)
- IC50 (Interleukin-8 [3]): 6.77 µM (active)

SMILES: O=C(c1cccnc1)N1CCN(c2cc(-c3ccccc3)nc3cc(-c4cccc(Cl)c4)nn23)CC1
- EC50 [4]: 0.37 µM (active)
- EC50 [5]: 0.52 µM (active)

SMILES: COc1cc(OC)c2c(=O)cc(-c3ccccc3)oc2c1 [CHRYSIN DIMETHYL ETHER]
- IC50 (cells): > 67.6 µM (inactive)
- IC50 [6]: > 67.6 µM (inactive)

SMILES: Cc1c(CCC(=O)NCCCN2CCCC2=O)c(=O)oc2cc(O)ccc12
- AC50 (Vero): 30.1 µM (active)

SMILES: COc1cc(C)c2c(c1C=O)Oc1c(c(C)c(O)c3c1C(O)OC3=O)OC2=O (centres undefined) [STICTIC ACID]
- IC50 [7]: > 66.6 µM (inactive)
- IC50 (Aminopeptidase N): 27.3 µM (active)
- AC50 (Caspase-7): 44.3 µM (active)
- AC50 (Caspase-8): > 70 µM (inactive)
- IC50 (Genome polyprotein): 71.2 µM (active)
- AC50 (Caspase-6): 0.817 µM (active)
- IC50 [8]: 7.69 µM (active)

SMILES: Sc1nnc(-c2ccccc2)n1C1C=CCCC1 (centres undefined)
- EC50 [9]: > 120 µM (not active)
- IC50 (Beta-lactamase [10]): > 59.6 µM (inactive)
- IC50 (Beta-lactamase [11]): > 59.6 µM (inactive)
- EC50 [12]: 104 µM (active)
- IC50 [13]: > 100 µM (inactive)
- IC50 [14]: 5.37 µM (active)
- EC50 [15]: > 120 µM (not active)
- IC50 (Beta-lactamase [16]): > 59.6 µM (inactive)

SMILES: O=C(/C=C/c1ccco1)Nc1ccc(-c2nc3ccccc3[nH]2)cc1
- IC50 [17]: 14 µM (inactive)
- IC50 (Protein Wnt-3a): 14.6 µM (active)

SMILES: CCn1cc(C(=O)O)c(=O)c2cc(F)c(N3CCN(C(=S)NC(=O)c4c(OC)cccc4OC)CC3)cc21
- IC50 [18]: 14 µM (active)

SMILES: C[C@@H]1CN([C@@H](C)CO)C(=O)Cc2cc(NS(=O)(=O)c3ccc(Cl)cc3)ccc2O[C@@H]1CN(C)Cc1ccc(Cl)c(Cl)c1
- AC50 [19]: 5.1 µM (active)

SMILES: COc1ccccc1S(=O)(=O)N1CC[C@@H]2[C@H](CO)Nc3ccc(-c4ccccc4)cc3[C@@H]21
- AC50 [20]: 19.3 µM (active)
- AC50 [21]: 16.5 µM (active)
